Laboratory results from ChEMBL document CHEMBL6071200, “Discovery of Ring-Annulated Analogues of Cannabidiol as Potential Anticancer Agents: Synthesis and Biological Evaluation” (ACS Med Chem Lett, 2024).
In brackets after ≈: the same amount, converted by molar mass. Activity calls are given as the source filed them. The calls are words filed in the database; no cut-off is given here.

Tests used:
HCT-116 [1] = experiment: Cytotoxicity against human HCT-116 cells assessed as inhibition of cell growth at 20 uM incubated for 48 hrs by SRB assay relative to control; format: functional
MCF7 [2] = experiment: Anticancer activity against human MCF7 cells assessed as inhibition of cell growth at 4.4 uM preincubated with SR144528 for 1 hrs followed by compound addition and measured after 48 hrs by SRB assay relative to control; format: functional
MCF7 [3] = experiment: Inhibition of colony formation in human MCF7 cells assessed as reduction in number of colonies at subtoxic doses measured after 48 hrs by crystal violet staining based analysis; format: functional, cell-based
MCF7 [4] = experiment: Anticancer activity against human MCF7 cells assessed as inhibition of cell growth at 4.4 uM preincubated with ML-193 for 1 hrs followed by compound addition and measured after 48 hrs by SRB assay; format: functional, cell-based
HCT-116 [5] = experiment: Cytotoxicity against human HCT-116 cells assessed as inhibition of cell growth incubated for 48 hrs by SRB assay; format: functional, cell-based; conditions: HCT-116, 48 h
MCF7 [6] = experiment: Induction of ROS production in human MCF7 cells assessed as DCFDA intensity at 4.4 uM incubated for 24 hrs by flow cytometric analysis (reference value: 0.95 %); format: functional
[7] = Metabolic stability in human liver microsomes assessed as intrinsic clearance at 5 uM measured upto 30 mins per mg protein in presence of NADPH by LC-MS/MS analysis; format: ADME, Microsome; conditions: read-out: CLH
[8] = Permeability of compound at 100 uM incubated for 16 hrs by PAMPA-BBB assay; format: ADME
Cytochrome P450 1A2 = Cytochrome P450 1A2 (Homo sapiens, UniProt P05177); experiment: Inhibition of CYP1A2 in human liver microsomes using […] substrate at 1 to 10 uM in presence of NADPH by LC-MS/MS analysis; format: ADME, Microsome; conditions: dose 1-10 µM
Sequence of Cytochrome P450 1A2 (P05177 whole entry): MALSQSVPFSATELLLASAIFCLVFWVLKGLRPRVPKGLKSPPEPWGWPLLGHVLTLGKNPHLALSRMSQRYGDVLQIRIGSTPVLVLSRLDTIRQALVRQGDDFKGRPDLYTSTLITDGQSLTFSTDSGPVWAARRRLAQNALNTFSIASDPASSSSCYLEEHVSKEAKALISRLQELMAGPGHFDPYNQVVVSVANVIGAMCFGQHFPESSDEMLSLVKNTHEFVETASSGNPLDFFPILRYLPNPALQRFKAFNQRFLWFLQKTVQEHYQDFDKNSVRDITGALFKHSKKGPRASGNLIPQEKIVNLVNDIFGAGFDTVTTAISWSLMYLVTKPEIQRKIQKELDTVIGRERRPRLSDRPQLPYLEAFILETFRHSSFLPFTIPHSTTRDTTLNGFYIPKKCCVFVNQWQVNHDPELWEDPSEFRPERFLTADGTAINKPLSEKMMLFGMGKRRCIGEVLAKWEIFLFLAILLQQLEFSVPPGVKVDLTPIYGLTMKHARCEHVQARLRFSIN

[9] = Selectivity index, ratio of IC50 for HEK293 cells to IC50 for human HCT-116 cells; format: toxicity; conditions: HEK293 cells versus HCT-116 cells, read-out: Ratio IC50
[10] = Metabolic stability in human liver microsomes assessed as half-life at 5 uM measured upto 30 mins in presence of NADPH by LC-MS/MS analysis; format: ADME, Microsome
[11] = Metabolic stability in human liver microsomes assessed as hepatic extraction ratio at 5 uM measured upto 30 mins in presence of NADPH by LC-MS/MS analysis; format: ADME, Microsome; conditions: read-out: ERH
MCF7 [12] = experiment: Anticancer activity against human MCF7 cells assessed as inhibition of cell growth at 4.4 uM preincubated with LY320135 for 1 hrs followed by compound addition and measured after 48 hrs by SRB assay; format: functional, cell-based
[13] = Metabolic stability in mouse liver microsomes assessed as half-life at 5 uM measured upto 30 mins in presence of NADPH by LC-MS/MS analysis; format: ADME, Microsome
MCF7 [14] = experiment: Induction of mitochondrial membrane loss in human MCF7 cells assessed as fold change at 4.4 uM incubated for 24 hrs by Mitotracker dye based flow cytometric analysis relative to control; format: functional
MCF7 [15] = experiment: Induction of apoptosis in human MCF7 cells assessed as necrotic cells at 4.4 uM incubated for 24 hrs by Annexin V-FITC/PI staining based flow cytometric analysis (reference value: 4.02 %); format: functional
[16] = Solubility of compound in SGF by UV absorbance based analysis; format: physicochemical
[17] = Metabolic stability in mouse liver microsomes assessed as hepatic extraction ratio at 5 uM measured upto 30 mins in presence of NADPH by LC-MS/MS analysis; format: ADME, Microsome; conditions: read-out: ERH
[18] = Metabolic stability in mouse liver assessed as intrinsic clearance at 5 uM measured upto 30 mins in presence of NADPH by LC-MS/MS analysis; format: ADME, tissue-based; conditions: read-out: CLH
MCF7 [19] = experiment: Cytotoxicity against human MCF7 cells assessed as inhibition of cell growth at 20 uM incubated for 48 hrs by SRB assay relative to control; format: functional
MCF7 [20] = experiment: Anticancer activity against human MCF7 cells assessed as reduction in cell viability at 4.4 uM incubated for 48 hrs by SRB assay relative to control; format: functional
MCF7 [21] = experiment: Induction of apoptosis in human MCF7 cells assessed as viable cells at 4.4 uM incubated for 24 hrs by Annexin V-FITC/PI staining based flow cytometric analysis (reference value: 88.20 %); format: functional; conditions: read-out: Activity
MCF7 [22] = experiment: Cell cycle arrest in human MCF7 cells assessed as accumulation of cells at S phase at 4.4 uM incubated for 24 hrs by PI staining based flow cytometric analysis (reference value: 22.93 %); format: functional
MCF7 [23] = experiment: Anticancer activity against human MCF7 cells assessed as inhibition of cell growth at 4.4 uM preincubated with capsazepine for 1 hrs followed by compound addition and measured after 48 hrs by SRB assay; format: functional, cell-based
MCF7 [24] = experiment: Cell cycle arrest in human MCF7 cells assessed as accumulation of cells at G1 phase at 4.4 uM incubated for 24 hrs by PI staining based flow cytometric analysis (reference value: 63.9 %); format: functional
Cytochrome P450 2C19 = Cytochrome P450 2C19 (Homo sapiens, UniProt P33261); experiment: Inhibition of CYP2C19 in human liver microsomes using S-mephenytoin substrate at 1 to 10 uM in presence of NADPH by LC-MS/MS analysis; format: ADME, Microsome; conditions: dose 1-10 µM
Sequence of Cytochrome P450 2C19 (P33261 whole entry): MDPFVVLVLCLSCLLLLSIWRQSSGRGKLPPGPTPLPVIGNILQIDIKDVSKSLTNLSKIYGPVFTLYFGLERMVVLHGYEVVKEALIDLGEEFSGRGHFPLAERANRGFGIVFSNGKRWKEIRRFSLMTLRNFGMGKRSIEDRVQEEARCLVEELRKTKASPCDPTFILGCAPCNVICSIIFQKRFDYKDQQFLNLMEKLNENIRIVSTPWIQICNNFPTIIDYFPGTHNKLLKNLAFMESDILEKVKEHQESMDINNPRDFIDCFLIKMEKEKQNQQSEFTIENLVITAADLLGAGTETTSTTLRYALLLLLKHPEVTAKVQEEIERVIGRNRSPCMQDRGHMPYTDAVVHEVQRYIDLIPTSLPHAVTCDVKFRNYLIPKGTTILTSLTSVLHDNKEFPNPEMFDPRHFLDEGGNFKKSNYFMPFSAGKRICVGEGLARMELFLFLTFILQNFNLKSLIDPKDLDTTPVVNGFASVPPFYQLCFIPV

[25] = Cytotoxicity against human HEK293 cells assessed as inhibition of cell growth incubated for 48 hrs by SRB assay; format: toxicity, cell-based
MCF7 [26] = experiment: Cell cycle arrest in human MCF7 cells assessed as accumulation of cells at G2/M phase at 4.4 uM incubated for 24 hrs by PI staining based flow cytometric analysis (reference value: 13.7 %); format: functional
MCF7 [27] = experiment: Cytotoxicity against human MCF7 cells assessed as inhibition of cell growth incubated for 48 hrs by SRB assay; format: functional, cell-based; conditions: MCF7, 48 h
[28] = Metabolic stability in human liver assessed as intrinsic clearance at 5 uM measured upto 30 mins in presence of NADPH by LC-MS/MS analysis; format: ADME, tissue-based; conditions: read-out: CLH
[29] = Solubility of compound in SIF by UV absorbance based analysis; format: physicochemical
MCF7 [30] = experiment: Anticancer activity against human MCF7 cells assessed as inhibition of cell growth at 4.4 uM preincubated with GW9662 for 1 hrs followed by compound addition and measured after 48 hrs by SRB assay; format: functional, cell-based
MCF7 [31] = experiment: Induction of apoptosis in human MCF7 cells assessed as late apoptotic cells at 4.4 uM incubated for 24 hrs by Annexin V-FITC/PI staining based flow cytometric analysis (reference value: 4.85 %); format: functional
MCF7 [32] = experiment: Induction of apoptosis in human MCF7 cells assessed as early apoptotic cells at 4.4 uM incubated for 24 hrs by Annexin V-FITC/PI staining based flow cytometric analysis (reference value: 2.93 %); format: functional
[33] = Metabolic stability in mouse liver microsomes assessed as intrinsic clearance at 5 uM measured upto 30 mins per mg protein in presence of NADPH by LC-MS/MS analysis; format: ADME, Microsome; conditions: read-out: CLH
[34] = Solubility of compound in water by UV absorbance based analysis; format: physicochemical
[35] = Selectivity index, ratio of IC50 for HEK293 cells to IC50 for human MCF7 cells; format: toxicity; conditions: HEK293 cells versus MCF7 cells, read-out: Ratio IC50

In the case of `C=C(C)[C@@H]1CCC(C)=C[C@H]1c1c(O)cc(CCCCC)c2c1OCN(C1CCC1)C2`, the inhibition at 20 µM (HCT-116 [1]) is reported as 63.4%, the inhibition at 4.4 µM (MCF7 [2]) is reported as roughly 17% and the inhibition (MCF7 [3]) is reported as “Active”. For the same molecule, the Activity (MCF7 [4]) was “Active”, the IC50 (HCT-116 [5]) was 8.6 µM and the Activity (MCF7 [6]) was 17.87%. The microsomal CLint at 5 µM [7] was 77 µL/min/mg, the permeability [8] was “Impermeable” and the “inhibition (INH)” value (Cytochrome P450 1A2) was “Active”. It also gave a selectivity ratio [9] of 3.2, a half-life at 5 µM [10] of 18 min and a hepatic extraction ratio at 0.5 h, 5 µM [11] of 0.81. The Activity (MCF7 [12]) was “Active”, the half-life at 5 µM [13] was 10 min and the “fold change (FC)” value (MCF7 [14]) was 5. It also gave an Activity (MCF7 [15]) of 6.2%, a solubility [16] greater than 1500 µg/mL and a hepatic extraction ratio at 0.5 h, 5 µM [17] of 0.87. For the same molecule, the CLint scaled at 5 µM [18] was 580 mL/min/kg, the inhibition at 20 µM (MCF7 [19]) was 84.9% and the Activity (MCF7 [20]) was 48.65%. For the same molecule, the viability at 4.4 µM (MCF7 [21]) was 67.8%, the Activity (MCF7 [22]) was 15.74% and the Activity (MCF7 [23]) was “Active”. For the same molecule, the Activity (MCF7 [24]) was 73.84%, the “inhibition (INH)” value (Cytochrome P450 2C19) was “Active” and the IC50 at 48 h [25] was 28.1 µM. It also gave an Activity (MCF7 [26]) of 10.42%, an IC50 (MCF7 [27]) of 4.4 µM and a CLint scaled at 5 µM [28] of 90 mL/min/kg. The solubility [29] was greater than 1500 µg/mL, the Activity (MCF7 [30]) was “Active” and the Activity (MCF7 [31]) was 18.39%. It also gave an Activity (MCF7 [32]) of 7.61%, a microsomal CLint at 5 µM [33] of 146 µL/min/mg and a solubility [34] of 40 µg/mL (≈ 97.7 µM). For the same molecule, the selectivity ratio [35] was 6.4.
